ChEMBL document CHEMBL3351466 (Bioorg Med Chem Lett, 2014)

How the values were obtained:
[1] = target: T1, Transient receptor potential cation channel subfamily V member 1 (Homo sapiens, UniProt Q8NER1); test: Antagonist activity at human TRPV1 expressed in CHO cells assessed as inhibition of capsaicin-induced increase in intracellular Ca2+ level by FLIPR assay; format: cell-based
[2] = test system: Rattus norvegicus; test: Analgesic activity in rat Bennett model for neuropathic pain […]; format: functional
[3] = target: T1, Transient receptor potential cation channel subfamily V member 1; test: Antagonist activity at human TRPV1 expressed in CHO cells assessed as inhibition of heat-induced increase in intracellular Ca2+ level by FLIPR assay; format: cell-based
[4] = target: T1, Transient receptor potential cation channel subfamily V member 1; test: Antagonist activity at human TRPV1 expressed in CHO cells assessed as inhibition of N-arachidonoyl dopamine-induced increase in intracellular Ca2+ level by FLIPR assay; format: cell-based
[5] = test system: Mus musculus; test: Inhibition of capsaicin-induced hypothermia in NMRI mouse compound administered orally 15 mins prior challenge measured 30 mins post challenge; format: functional, organism-based
[6] = test system: Mus musculus; test: Inhibition of capsaicin-induced hypothermia in NMRI mouse compound at 0.1 mg/kg, po administered 15 mins prior challenge measured 30 mins post challenge; format: functional
[7] = test system: Mus musculus; test: Inhibition of capsaicin-induced hypothermia in NMRI mouse compound at 0.3 mg/kg, po administered 15 mins prior challenge measured 30 mins post challenge; format: functional
[8] = test system: Rattus norvegicus; test: Analgesic activity in orally dosed rat Bennett model for neuropathic pain; format: functional, organism-based
[9] = test system: Rattus norvegicus; test: Analgesic activity in rat Bennett model for neuropathic pain at 1 mg/kg, po; format: functional
[10] = test system: Rattus norvegicus; test: Analgesic activity in rat Bennett model for neuropathic pain at 0.1 mg/kg, po; format: functional

T1 sequence (Q8NER1 whole entry): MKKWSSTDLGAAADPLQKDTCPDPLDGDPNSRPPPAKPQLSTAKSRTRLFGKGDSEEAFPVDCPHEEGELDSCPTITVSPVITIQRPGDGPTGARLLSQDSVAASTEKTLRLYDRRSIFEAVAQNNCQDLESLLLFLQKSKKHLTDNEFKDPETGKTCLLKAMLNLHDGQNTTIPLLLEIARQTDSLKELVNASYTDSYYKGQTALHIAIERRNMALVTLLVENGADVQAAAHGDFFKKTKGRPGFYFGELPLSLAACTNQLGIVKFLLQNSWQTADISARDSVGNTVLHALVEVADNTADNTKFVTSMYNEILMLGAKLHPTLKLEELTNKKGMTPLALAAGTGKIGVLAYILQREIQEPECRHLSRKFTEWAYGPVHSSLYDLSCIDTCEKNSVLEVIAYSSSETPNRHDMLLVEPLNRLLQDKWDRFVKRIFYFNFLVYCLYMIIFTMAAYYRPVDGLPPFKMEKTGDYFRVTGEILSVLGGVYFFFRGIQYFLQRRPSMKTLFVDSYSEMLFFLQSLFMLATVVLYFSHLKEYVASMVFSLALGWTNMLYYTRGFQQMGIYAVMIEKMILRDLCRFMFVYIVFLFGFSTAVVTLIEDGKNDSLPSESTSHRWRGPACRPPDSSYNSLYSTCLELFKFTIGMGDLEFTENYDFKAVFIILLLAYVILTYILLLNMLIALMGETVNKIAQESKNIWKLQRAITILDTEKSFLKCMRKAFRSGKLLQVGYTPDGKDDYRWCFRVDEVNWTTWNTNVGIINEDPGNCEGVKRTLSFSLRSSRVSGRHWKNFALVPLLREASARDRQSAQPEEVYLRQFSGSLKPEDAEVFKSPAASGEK

| Structure (SMILES) | Ki [1] [nM] | other results |
| --- | --- | --- |
| CCC1CCC(c2nc(C(F)(F)F)ccc2CNC(=O)C(C)c2ccc(NS(C)(=O)=O)c(F)c2)CC1 (racemic) | 0.3 | – |
| C[C@H](C(=O)NCc1ccc(C(F)(F)F)nc1C1=CCC(C)(C)CC1)c1ccc(NS(C)(=O)=O)c(F)c1 | 0.1 | – |
| C[C@H](C(=O)NCc1ccc(C(F)(F)F)nc1C1CC2CCC1C2)c1ccc(NS(C)(=O)=O)c(F)c1 (stereo partly drawn) | 0.8 | – |
| CC1C=C(c2nc(C(F)(F)F)ccc2CNC(=O)C(C)c2ccc(NS(C)(=O)=O)c(F)c2)CCC1 (stereo not drawn) | 0.2 | – |
| C[C@H](C(=O)NCc1ccc(C(F)(F)F)nc1C1CCC(C)(C)CC1)c1ccc(NS(C)(=O)=O)c(F)c1 | 0.3 | – |
| CC(C(=O)NCc1ccc(C(F)(F)F)nc1C1CC2CCC1C2)c1ccc(NS(C)(=O)=O)c(F)c1 (racemic) | 1.5 | – |
| CC(C(=O)NCc1ccc(C(F)(F)F)nc1[C@H]1CC[C@H](C(C)(C)C)CC1)c1ccc(NS(C)(=O)=O)c(F)c1 (stereo partly drawn) | 0.3 | – |
| CC(C(=O)NCc1ccc(C(F)(F)F)nc1C1=CCC(C)(C)CC1)c1ccc(NS(C)(=O)=O)c(F)c1 (racemic) | 0.2 | – |
| CCCc1nc(C(F)(F)F)ccc1CNC(=O)C(C)c1ccc(NS(C)(=O)=O)c(F)c1 (stereo not drawn) | 22.7 | – |
| CC(C(=O)NCc1ccc(C(F)(F)F)nc1C1CCC(C)(C)CC1)c1ccc(NS(C)(=O)=O)c(F)c1 (racemic) | 0.4 | – |
| CC1CCC(c2nc(C(F)(F)F)ccc2CNC(=O)C(C)c2ccc(NS(C)(=O)=O)c(F)c2)CC1 (stereo not drawn) | 0.4 | – |
| C[C@H](C(=O)NCc1ccc(C(F)(F)F)nc1C1CCCCC1)c1ccc(NS(C)(=O)=O)c(F)c1 | 0.3 | – |
| CC(C)C[C@H](CN)CC(=O)O [PREGABALIN] | – | ED50 [2]: 42.2 mg/kg |
| CC1CC=C(c2nc(C(F)(F)F)ccc2CNC(=O)[C@@H](C)c2ccc(NS(C)(=O)=O)c(F)c2)CC1 (stereo partly drawn) | 0.2 | – |
| CC(C(=O)NCc1ccc(C(F)(F)F)nc1C1CCCCC1)c1ccc(NS(C)(=O)=O)c(F)c1 (stereo not drawn) | – | IC50 [3]: 14.1 nM; Ki [4]: 0.2 nM; inhibition [5]: Dose-dependent effect; inhibition in vivo at 0.1 mg/kg [6]: 24%; inhibition in vivo at 0.3 mg/kg [7]: 78%; Activity [8]: Dose-dependent effect; %max [9]: 53%; %max [10]: 25% |
| CC(C(=O)NCc1ccc(C(F)(F)F)nc1C1=CCC(C(C)(C)C)CC1)c1ccc(NS(C)(=O)=O)c(F)c1 (racemic) | 0.2 | – |
| CC(C(=O)NCc1ccc(C(F)(F)F)nc1C1CCC(C(C)(C)C)CC1)c1ccc(NS(C)(=O)=O)c(F)c1 (stereo not drawn) | 0.3 | – |
| CC(C(=O)NCc1ccc(C(F)(F)F)nc1C1CCC(F)(F)CC1)c1ccc(NS(C)(=O)=O)c(F)c1 (stereo not drawn) | 1.5 | – |
| CC(C(=O)NCc1ccc(C(F)(F)F)nc1[C@H]1CC[C@@H](C(C)(C)C)CC1)c1ccc(NS(C)(=O)=O)c(F)c1 (stereo partly drawn) | 1.3 | – |
| C[C@H](C(=O)NCc1ccc(C(F)(F)F)nc1C1=CCC(C(C)(C)C)CC1)c1ccc(NS(C)(=O)=O)c(F)c1 (stereo partly drawn) | 0.1 | – |
| CCC1CCC(c2nc(C(F)(F)F)ccc2CNC(=O)[C@@H](C)c2ccc(NS(C)(=O)=O)c(F)c2)CC1 (stereo partly drawn) | 0.2 | – |
